From US4215112A, “Tripeptides and methods” (Ortho Pharmaceutical Corporation, priority 1979, dated 1980)
Where a SMILES comes first, the peptide text is derived from it. Where no end group is shown, it is not given here. [ ]: non-standard residue; d: D form. Glx = not defined here; Sar = CNCC(=O)O

What was measured:
[1] = tested on: Th-1+ T lymphocytes (T-precursor cells of bone marrow); assay: chicken induction assay, Th-1+ T cells; format: cell-based
Description: (§1) To determine the activity and characteristics of the tripeptide amide produced in Example I, the following chicken induction assay was employed. This assay is described in greater detail in Brand, et al., Science, 193, 319-321 (July 23, 1976) and references contained therein.
(§2) Bone marrow from newly-hatched chickens was selected as a source of inducible cells because it lacks an appreciable number of Bu-1^+ or Th-1^+ cells. Pooled cells from femur and tibiotarsus of five newly-hatched chicks of strain SC (Hy-Line) were fractionated by ultracentrifugation on a five-layer discontinuous bovine serum albumin (BSA) gradient. Cells from the two lighter layers were combined, washed, and suspended for incubation at a concentration of 5×10^6 cells per milliliter with the appropriate concentration of test polypeptide in RPMI 1630 medium supplemented with 15 mM hepes, 5 percent γ-globulin-free fetal calf serum, deoxyribonuclease (14 to 18 unit/ml), heparin (5 unit/ml), penicillin (100 unit/ml), and streptomycin (100 μg/ml). Controls were incubated with BSA (1 μg/ml) or medium alone. After incubation, the cells were tested in the cytotoxicity assay using chicken Cl and guinea pig C2 to C9 complement fractions as described in the reference article. The proportion of Bu-1^+ or Th-1^+ cells in each layer was calculated as a cytotoxicity index, 100 (a-b)/a, where a and b are the percentages of viable cells in the complement control and test preparation, respectively. The percentage of cells induced was obtained by subtracting the mean values in the control incubations without inducing agents (usually 1 to 3 percent) from those of the test inductions.
(§3) This high dose of ubiquitin inactivates the ubiquitin receptors and thus prevents the induction of cells by any agent which acts through these receptors.

[2] = tested on: Bu-1+ B lymphocytes (B-precursor cells of bone marrow); assay: chicken induction assay, Bu-1+ B cells; format: cell-based
Description: as §1, §2, §3

[3] = tested on: immunocyte-precursor cells; assay: in vitro induction of differentiation of immunocyte-precursor cells (general statement); format: cell-based
Description: Stated another way, the subject polypeptides have the capability of inducing differentiation of both Th-1^+ T-lymphocytes and Bu-1^+ B-lymphocytes.
The carrier may be any of the well-known carriers for this purpose including normal saline solutions, preferably with a protein diluent such as bovine serum albumin to prevent adsorptive losses to glassware at these low concentrations. The polypeptides of this invention are generally active when parenterally administered at a range of above about 1 μg/kg of body weight. For the treatment of DiGeorge Syndrome, the polypeptides may be parenterally administered at a rate of about 1 to about 100 μg/kg of body weight. Generally, the same range of dosage amounts may be used in treatment of the other conditions or diseases mentioned.

T cells and B cells = settings: literature / copending application; cited from earlier work
T cells = settings: E rosette assay; literature; cited from earlier work
[4] = bone marrow cells of newly-hatched chickens, cytotoxicity assay

## C[C@@H](NC(=O)[C@@H](N)CCCCN)C(=O)N[C@@H](CCC(N)=O)C(N)=O [H--LYS--D--ALA--GLN--NH2] (H-Lys-[dA]-Gln-NH2)
[1]; result in words
  biological activity: induction of differentiation of Th-1+ T cells: Biological activity similar to that of ubiquitin was observed
[2]; result in words
  biological activity: induction of differentiation of Bu-1+ B cells: Biological activity similar to that of ubiquitin was observed

## CN(CC(=O)N[C@@H](CCC(N)=O)C(N)=O)C(=O)[C@@H](N)CCCCN [amidated tripeptide of Example I, H--LYS--SAR--GLN--NH2] (H-Lys-[Sar]-Gln-NH2)
[1]; [4]
  concentration inducing the differentiation of Th-1+ T lymphocytes: 100 pg/mL
[1]; ubiquitin 100 μg/ml added
  effect of added ubiquitin on induction of Th-1+ T cells by the test polypeptide: inhibition of induction
[3]
  concentration at which active: about 100 pg/ml
[2]; [4]
  concentration inducing the differentiation of Bu-1+ B lymphocytes: 100 pg/mL
[2]; ubiquitin 100 μg/ml added
  effect of added ubiquitin on induction of Bu-1+ B cells by the test polypeptide: inhibition of induction

## GLX--ALA--LYS--SER--GLN--GLY--GLY--SER--ASN (Glx-AKSQGGSN; reading uncertain; also: N-terminal Glx: Gln or pyroglutamic acid, printed as GLX--ALA--LYS--SER--GLN--GLY--GLY--SER--ASN) [FTS, nonapeptide isolated from porcine serum; GLX is glutamine or pyroglutamic acid]
T cells and B cells
  differentiation of T cells and B cells: differentiated both T cells and B cells
T cells
  differentiation of T cells versus B cells: selectively differentiated T cells (and not B cells)

## H--ALA--LYS--SER--GLN--OH (H-AKSQ-OH) [tetrapeptide of copending application Ser. No. 960,550]
T cells and B cells
  differentiation of T cells and B cells: same activity as FTS

## H--SAR--LYS--SAR--GLN--NH2
T cells and B cells
  differentiation of T cells and B cells: same activity as FTS
